Calls of active or inactive are those of the source. The calls are words filed in the database; no cut-off is given here.
Legend:
[1] = molecular target: Protease (Human immunodeficiency virus 1, UniProt Q9YQ12); experiment: Inhibition of wild type HIV-1 protease assessed as hydrolysis of fluorogenic substrate Abz-Thr-Ile-Nle-Phe(NO2)-Gln-Arg after 10 mins by fluorescence assay
[2] = Cytotoxicity against human U937 cells after 1 to 4 hrs by MTS assay; assay type: cell-based, U-937
[3] = test system: Human immunodeficiency virus type 1 protease (Human immunodeficiency virus 1), Q72874 [V82A]; experiment: Inhibition of HIV-1 protease V82A mutant assessed as hydrolysis of fluorogenic substrate Abz-Thr-Ile-Nle-Phe(NO2)-Gln-Arg after 10 mins by fluorescence assay
[4] = test system: Human immunodeficiency virus type 1 protease (Human immunodeficiency virus 1), Q72874 [V32I]; experiment: Inhibition of HIV-1 protease V32I mutant assessed as hydrolysis of fluorogenic substrate Abz-Thr-Ile-Nle-Phe(NO2)-Gln-Arg after 10 mins by fluorescence assay

Protease, sequence (Q9YQ12 whole entry): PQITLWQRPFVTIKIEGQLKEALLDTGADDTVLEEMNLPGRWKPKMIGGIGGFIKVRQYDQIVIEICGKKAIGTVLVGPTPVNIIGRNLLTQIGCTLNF

Compound	IC50 [1] [µM]	CC50 [2] [µM]	inhibition [3]	inhibition [4]
COc1ccc(S(=O)(=O)N(CC(C)C)C[C@@H](O)COc2ccc3occc3c2)cc1OC	130			
Cc1c(O)cccc1C(=O)N[C@@H](CSc1ccccc1)[C@H](O)CN1C[C@H]2CCCC[C@H]2C[C@H]1C(=O)NC(C)(C)C [NELFINAVIR]	0.009			
COc1ccc(S(=O)(=O)N(CC(C)C)C[C@@H](O)COc2ccc3sccc3c2)cc1OC	0.06	> 90	inactive	inactive
COc1ccc(S(=O)(=O)N(CC(C)C)C[C@@H](O)COc2ccc3c(ccn3C)c2)cc1OC	> 1000			

More lines, main results first:

IC50 [1] [µM]	Compound	CC50 [2] [µM]	inhibition [3]	inhibition [4]
1	COc1ccc(S(=O)(=O)N(CC(C)C)C[C@@H](O)COc2ccc3[nH]ccc3c2)cc1OC			
> 1000	COc1ccc(S(=O)(=O)N(CC(C)C)C[C@@H](O)COc2ccc3c(ccn3Cc3ccccc3)c2)cc1OC			

— ChEMBL document CHEMBL2016437, “Synthesis and biological evaluation of novel small non-peptidic HIV-1 PIs: the benzothiophene ring as an effective moiety” (Bioorg Med Chem Lett, 2012)
